Data as given in US20240108634A1, “COMPOSITIONS AND METHODS FOR INHIBITING YAP” (The United States Government as represented by the …, priority 2021, published 2024).

Key:
YAP [1] = target: T1, YAP (Homo sapiens, UniProt P46937); assay: Western blot of YAP and TEAD levels in GBM lines; type: cell-based; details: LN229, T98G, GBM39; 18 h, increasing concentrations
T1 construct: endogenous in cells; host or cells: LN229, T98G, GBM39
Description: (§1) Levels of total YAP were determined via ELISA. […] Immunoprecipitates were immunoblotted for the indicated proteins. […] Cells were treated with the indicated concentrations of inhibitor for 18 h and mRNA extracted for real time RT-PCR analyses. Measurements were performed in quadruplicate and means and+S.D. are shown. […] Cells were treated with (+) or without (−) NSC682769 (100 nM, 18 h) and harvested and separated into cytoplasmic and nuclear cellular fractions. Cytoplasmic versus nuclear material was subsequently immunoblotted for the indicated proteins. […] Values in top right corner of panels correspond to the percentage of nuclear localized YAP. […]
(§2) Protein and mRNA analyses, immunoprecipitation, in vitro bead-coupled inhibitor binding assays and HPLC analyses. […] Antigen-antibody complexes were detected using appropriate horseradish peroxidase-conjugated secondary antibodies (GE Healthcare) and enhanced chemiluminescence (Amersham ECL Prime). […] For quantitative RT-PCR, extraction of RNA was performed using Trizol® (Life Technologies). Total RNA was then quantified and integrity assessed using an Agilent 2100 Bioanalyzer (Agilent Technology). […] SYBR® Green quantitative PCR (Millipore Sigma) was performed in triplicate in 96-well optical plates on an ABI Prism 7000 Sequence Detection System (Life Technologies) according to the manufacturer's instructions. […]

YAP [2] = assay: Western blot of YAP and TEAD levels in GBM lines; type: cell-based, human; details: LN229, T98G, GBM39; 18 h, increasing concentrations
Description: as §1, §2

## COc1ccc(-c2cc(-c3ccccc3)nc3c2CC(=O)Nc2ccccc2-3)cc1OC [NSC682769]
YAP [1]
  YAP levels: decreased
YAP [2]
  TEAD levels: unaffected
